Source: ChEMBL document CHEMBL1153180, “Discovery and initial optimization of 5,5'-disubstituted aminohydantoins as potent beta-secretase (BACE1) inhibitors” (Bioorg Med Chem Lett, 2010)
In brackets after ≈: the same amount, converted by molar mass.

Tests used:
Beta-secretase 1 [1] = target: T1, Beta-secretase 1 (Homo sapiens, UniProt P56817); assay: Inhibition of human BACE1 by FRET assay
Beta-secretase 2 = target: T2, Beta-secretase 2 (Homo sapiens, UniProt Q9Y5Z0); assay: Inhibition of human BACE2 by FRET assay
T2 sequence (Q9Y5Z0 whole entry): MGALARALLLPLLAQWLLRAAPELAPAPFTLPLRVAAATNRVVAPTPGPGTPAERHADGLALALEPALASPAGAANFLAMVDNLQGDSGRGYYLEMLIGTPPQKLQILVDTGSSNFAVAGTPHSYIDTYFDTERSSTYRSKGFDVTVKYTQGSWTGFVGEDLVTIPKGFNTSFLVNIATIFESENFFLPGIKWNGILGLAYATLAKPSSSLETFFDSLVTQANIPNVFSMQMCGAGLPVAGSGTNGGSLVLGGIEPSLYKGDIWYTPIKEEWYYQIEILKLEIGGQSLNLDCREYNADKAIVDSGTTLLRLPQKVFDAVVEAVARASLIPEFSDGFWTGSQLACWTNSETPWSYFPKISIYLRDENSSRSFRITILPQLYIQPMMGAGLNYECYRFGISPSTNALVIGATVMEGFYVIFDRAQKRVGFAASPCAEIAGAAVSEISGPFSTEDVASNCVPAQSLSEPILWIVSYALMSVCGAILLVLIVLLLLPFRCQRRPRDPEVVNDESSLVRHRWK

Cathepsin D [2] = target: T3, Cathepsin D (Homo sapiens, UniProt P07339); assay: Inhibition of human cathepsin D by FRET assay
T3 sequence (P07339 65-162 limits assumed): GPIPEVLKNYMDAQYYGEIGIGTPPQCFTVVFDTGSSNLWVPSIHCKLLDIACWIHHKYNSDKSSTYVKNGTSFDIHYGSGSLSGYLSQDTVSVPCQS
T3 sequence (P07339 169-412 limits assumed): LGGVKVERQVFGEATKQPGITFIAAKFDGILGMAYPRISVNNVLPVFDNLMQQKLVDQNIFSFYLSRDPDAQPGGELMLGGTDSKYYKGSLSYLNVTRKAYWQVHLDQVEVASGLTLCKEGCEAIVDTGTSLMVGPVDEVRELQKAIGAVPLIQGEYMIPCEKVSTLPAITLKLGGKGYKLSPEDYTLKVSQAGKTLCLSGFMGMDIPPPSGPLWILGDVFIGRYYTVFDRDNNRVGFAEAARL

[3] = Membrane permeability by PAMPA; format: ADME; settings: read-out: permeability
Cathepsin D [4] = target: T3, Cathepsin D; assay: Inhibition of human cathepsin D at 100 uM by FRET assay
[5] = Membrane permeability by PAMPA-BBB assay; format: ADME; settings: read-out: permeability
Beta-secretase 1 [6] = target: Beta-secretase 1 (Cricetulus griseus, UniProt G3IAK4); assay: Inhibition of human recombinant APP expressed in CHO-K1 cells assessed as reduction of amyloid beta level by ELISA; format: cell-based
Chain of Beta-secretase 1 (Cricetulus griseus, UniProt G3IAK4) (G3IAK4 whole entry): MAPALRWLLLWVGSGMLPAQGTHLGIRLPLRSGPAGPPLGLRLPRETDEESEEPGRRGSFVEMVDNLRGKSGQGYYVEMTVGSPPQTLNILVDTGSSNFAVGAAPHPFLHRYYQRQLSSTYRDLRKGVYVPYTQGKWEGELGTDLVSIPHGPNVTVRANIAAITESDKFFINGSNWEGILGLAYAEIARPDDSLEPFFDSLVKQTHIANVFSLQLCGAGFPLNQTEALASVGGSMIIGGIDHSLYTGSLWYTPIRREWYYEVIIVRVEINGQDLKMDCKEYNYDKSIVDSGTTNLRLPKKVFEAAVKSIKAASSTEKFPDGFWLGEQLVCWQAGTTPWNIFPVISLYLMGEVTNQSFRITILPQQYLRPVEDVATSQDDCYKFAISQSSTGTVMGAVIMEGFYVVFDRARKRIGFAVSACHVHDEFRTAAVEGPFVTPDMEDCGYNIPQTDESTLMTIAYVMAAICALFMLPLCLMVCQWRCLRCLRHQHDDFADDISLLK

[7] = Solubility at pH 7.4; format: physicochemical; settings: buffer
Beta-secretase 1 [8] = target: T1, Beta-secretase 1; assay: Inhibition of human BACE1 at 5 uM by FRET assay

T1 sequence (P56817 whole entry): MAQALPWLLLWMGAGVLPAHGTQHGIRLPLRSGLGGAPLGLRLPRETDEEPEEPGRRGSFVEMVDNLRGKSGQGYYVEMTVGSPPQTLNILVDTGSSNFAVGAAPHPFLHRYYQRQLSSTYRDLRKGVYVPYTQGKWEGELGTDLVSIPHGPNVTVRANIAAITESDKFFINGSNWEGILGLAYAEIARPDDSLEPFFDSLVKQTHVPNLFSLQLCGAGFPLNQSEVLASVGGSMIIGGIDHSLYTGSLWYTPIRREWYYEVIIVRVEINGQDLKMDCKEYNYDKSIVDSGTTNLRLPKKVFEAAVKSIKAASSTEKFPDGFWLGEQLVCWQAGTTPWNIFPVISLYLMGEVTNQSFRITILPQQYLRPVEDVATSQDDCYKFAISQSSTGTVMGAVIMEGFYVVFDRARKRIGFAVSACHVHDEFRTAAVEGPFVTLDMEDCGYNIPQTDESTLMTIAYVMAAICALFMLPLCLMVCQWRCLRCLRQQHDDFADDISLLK

IC50 (Beta-secretase 1 [1]) | IC50 (Beta-secretase 2) | Compound | other results
990 nM | 510 nM | CN1C(=O)C(c2ccccc2)(C2CCCCC2)N=C1N (stereo not drawn) | IC50 (Cathepsin D [2]): 24 µM; Papp [3]: 7.2 ×10⁻⁶ cm/s; inhibition (Cathepsin D [4]): 38%; Papp [5]: 12.8 ×10⁻⁶ cm/s; EC50 (Beta-secretase 1 [6]): 810 nM; solubility [7]: > 100 µg/mL
1360 nM | 490 nM | COc1cccc(C(=O)Nc2cccc(C3(C4CCCCC4)N=C(N)N(C)C3=O)c2)c1 (stereo not drawn) | –
1040 nM | 170 nM | NC1=NC(c2ccccc2)(C2CCCCC2)C(=O)N1CC1CCCO1 (stereo not drawn) | –
– | 30 nM | Cc1ccoc1C(=O)Nc1cccc(C2(C3CCCCC3)N=C(N)N(C)C2=O)c1 (stereo not drawn) | IC50 (Cathepsin D [2]): 17.1 µM; Papp [3]: 1.4 ×10⁻⁶ cm/s; Papp [5]: 13.7 ×10⁻⁶ cm/s; EC50 (Beta-secretase 1 [6]): 180 nM; solubility [7]: 41 µg/mL (≈ 104 µM)
– | – | NC1=NC(c2ccccc2)(c2ccccc2)C2=NCCCN12 | Papp [3]: 1 ×10⁻⁶ cm/s; inhibition (Cathepsin D [4]): 2%; Papp [5]: 8.6 ×10⁻⁶ cm/s; EC50 (Beta-secretase 1 [6]): 16000 nM; solubility [7]: 55 µg/mL (≈ 189 µM)
1080 nM | 410 nM | NC1=NC(c2ccccc2)(C2CCCCC2)C(=O)N1Cc1cc(F)cc(F)c1 (stereo not drawn) | –
1240 nM | 570 nM | NC1=NC(c2ccccc2)(C2CCCCC2)C(=O)N1Cc1ccccc1 (stereo not drawn) | –
1080 nM | 510 nM | CN1C(=O)C(C2CCCCC2)(C2CCCCC2)N=C1N | Papp [3]: 2.9 ×10⁻⁶ cm/s; inhibition (Cathepsin D [4]): 33%; Papp [5]: 7.7 ×10⁻⁶ cm/s; EC50 (Beta-secretase 1 [6]): 1030 nM; solubility [7]: > 100 µg/mL
7860 nM | 1850 nM | COCCC(=O)Nc1cccc(C2(C3CCCCC3)N=C(N)N(C)C2=O)c1 (stereo not drawn) | –
950 nM | 310 nM | NC1=NC(c2ccccc2)(C2CCCCC2)C(=O)N1CCCCCC(=O)O (stereo not drawn) | –
– | 180 nM | CN1C(=O)C(c2cccc(NC(=O)c3cccn3C)c2)(C2CCCCC2)N=C1N (stereo not drawn) | –
2850 nM | 490 nM | CCCC(=O)Nc1cccc(C2(C3CCCCC3)N=C(N)N(C)C2=O)c1 (stereo not drawn) | –
– | 1650 nM | NC1=NC(c2ccccc2)(C2CCCCC2)C(=O)N1CCCO (stereo not drawn) | inhibition (Beta-secretase 1 [8]): 56%
1390 nM | 270 nM | CCCCCCN1C(=O)C(c2ccccc2)(C2CCCCC2)N=C1N (stereo not drawn) | –
– | 40 nM | COCC(=O)Nc1cccc(C2(C3CCCCC3)N=C(N)N(C)C2=O)c1 (stereo not drawn) | –
100 nM | 20 nM | CN1C(=O)C(c2cccc(NC(=O)c3ccco3)c2)(C2CCCCC2)N=C1N (stereo not drawn) | –

Compound | IC50 (Beta-secretase 1 [1]) | IC50 (Beta-secretase 2) | other results
NC1=NC(c2ccccc2)(C2CCCCC2)C(=O)N1C[C@H]1CC[C@H](C(=O)O)CC1 (stereo partly drawn) | 390 nM | 120 nM | –
CN1C(=O)C(c2cccc(NC(=O)c3ccc4c(c3)OCO4)c2)(C2CCCCC2)N=C1N (stereo not drawn) | 380 nM | 1150 nM | –
CN1C(=O)C(c2ccccc2)(c2ccccc2)N=C1N | – | 770 nM | Papp [3]: 3 ×10⁻⁶ cm/s; inhibition (Cathepsin D [4]): 34%; Papp [5]: 11.1 ×10⁻⁶ cm/s; EC50 (Beta-secretase 1 [6]): 4170 nM; solubility [7]: > 100 µg/mL
